ChEMBL document CHEMBL3044541, “Control of crown rot-causing fungal pathogens of banana by inorganic salts and a surfactant” (Crop Prot, 2007)
The source made the active and inactive calls. The calls are words filed in the database; no cut-off is given here.

Assays:
Lasiodiplodia theobromae [1] = assay: Antifungal activity against Lasiodiplodia theobromae assessed as inhibition of conidium germination at 5 g/l incubated for 15 min followed by compound washout measured after 7 days by microscopic analysis in presence of surfactant APSA 80; type: functional, organism-based
Lasiodiplodia theobromae [2] = assay: Antifungal activity against Lasiodiplodia theobromae assessed as inhibition of conidium germination at 5 g/l incubated for 15 min followed by compound washout measured after 2 days by microscopic analysis in absence of surfactant APSA 80; type: functional, organism-based
Fusarium verticillioides [3] = assay: Antifungal activity against Fusarium verticillioides assessed as inhibition of conidium germination at 5 g/l incubated for 15 min followed by compound washout measured after 2 days by microscopic analysis in absence of surfactant APSA 80; type: functional, organism-based
Colletotrichum musae [4] = assay: Growth inhibition of Colletotrichum musae assessed as inhibition of mycelial growth up to 160 g/l incubated for 15 min followed by compound washout measured after 7 days in presence of surfactant APSA 80; type: functional, organism-based
Fusarium verticillioides [5] = assay: Antifungal activity against Fusarium verticillioides assessed as inhibition of conidium germination at 5 g/l incubated for 15 min followed by compound washout measured after 7 days by microscopic analysis in presence of surfactant APSA 80; type: functional, organism-based
Thielaviopsis paradoxa [6] = assay: Antifungal activity against Ceratocystis paradoxa assessed as inhibition of conidium germination at 5 g/l incubated for 15 min followed by compound washout measured after 2 days by microscopic analysis in absence of surfactant APSA 80; type: functional, organism-based
Thielaviopsis paradoxa [7] = assay: Growth inhibition of Ceratocystis paradoxa assessed as inhibition of mycelial growth up to 160 g/l incubated for 15 min followed by compound washout measured after 7 days in absence of surfactant APSA 80; type: functional, organism-based
Colletotrichum musae [8] = assay: Growth inhibition of Colletotrichum musae assessed as inhibition of mycelial growth up to 160 g/l incubated for 15 min followed by compound washout measured after 7 days in absence of surfactant APSA 80; type: functional
Fusarium verticillioides [9] = assay: Growth inhibition of Fusarium verticillioides assessed as inhibition of mycelial growth up to 160 g/l incubated for 15 min followed by compound washout measured after 7 days in absence of surfactant APSA 80; type: functional
Colletotrichum musae [10] = assay: Antifungal activity against Colletotrichum musae assessed as inhibition of conidium germination at 5 g/l incubated for 15 min followed by compound washout measured after 2 days by microscopic analysis in absence of surfactant APSA 80; type: functional, organism-based
Thielaviopsis paradoxa [11] = assay: Antifungal activity against Ceratocystis paradoxa assessed as inhibition of conidium germination at 5 g/l incubated for 15 min followed by compound washout measured after 7 days by microscopic analysis in presence of surfactant APSA 80; type: functional, organism-based
Colletotrichum musae [12] = assay: Antifungal activity against Colletotrichum musae assessed as inhibition of conidium germination at 5 g/l incubated for 15 min followed by compound washout measured after 7 days by microscopic analysis in presence of surfactant APSA 80; type: functional, organism-based
Fusarium verticillioides [13] = assay: Growth inhibition of Fusarium verticillioides assessed as inhibition of mycelial growth up to 160 g/l incubated for 15 min followed by compound washout measured after 7 days in presence of surfactant APSA 80; type: functional, organism-based
Thielaviopsis paradoxa [14] = assay: Growth inhibition of Ceratocystis paradoxa assessed as inhibition of mycelial growth up to 160 g/l incubated for 15 min followed by compound washout measured after 7 days in presence of surfactant APSA 80; type: functional
Fusarium verticillioides [15] = assay: Antifungal activity against Fusarium verticillioides infected Cavendish banana fruit assessed as reduction in crown rot incubated for 15 min followed by compound washout measured after 1 week in absence of surfactant APSA 80 relative to control; type: functional; design: scale not given: the % may be the effect or the level left
Lasiodiplodia theobromae [16] = assay: Growth inhibition of Lasiodiplodia theobromae assessed as concentration required for inhibition of mycelial growth incubated for 15 min followed by compound washout measured after 7 days in presence of surfactant APSA 80; type: functional
Colletotrichum musae [17] = assay: Antifungal activity against Colletotrichum musae assessed as reduction in colony diameter at 10 to 160 g/l incubated for 15 min followed by compound washout measured after 7 days in absence of surfactant APSA 80 relative to control; type: functional; design: scale not given: the % may be the effect or the level left
Fusarium verticillioides [18] = assay: Antifungal activity against Fusarium verticillioides infected Cavendish banana fruit assessed as reduction in crown rot incubated for 15 min followed by compound washout measured after 1 week in presence of surfactant APSA 80 relative to control; type: functional; design: scale not given: the % may be the effect or the level left
Colletotrichum musae [19] = assay: Antifungal activity against Colletotrichum musae infected Cavendish banana fruit assessed as reduction in crown rot incubated for 15 min followed by compound washout measured after 2 weeks in presence of surfactant APSA 80 relative to control; type: functional; design: scale not given: the % may be the effect or the level left
Thielaviopsis paradoxa [20] = assay: Antifungal activity against Ceratocystis paradoxa assessed as reduction in colony diameter at 10 to 160 g/l incubated for 15 min followed by compound washout measured after 7 days in presence of surfactant APSA 80 relative to control; type: functional; design: scale not given: the % may be the effect or the level left
Lasiodiplodia theobromae [21] = assay: Antifungal activity against Lasiodiplodia theobromae infected Cavendish banana fruit assessed as reduction in crown rot incubated for 15 min followed by compound washout measured after 1 week in presence of surfactant APSA 80 relative to control; type: functional; design: scale not given: the % may be the effect or the level left
Fusarium verticillioides [22] = assay: Antifungal activity against Fusarium verticillioides infected Cavendish banana fruit assessed as reduction in crown rot incubated for 15 min followed by compound washout measured after 3 weeks in absence of surfactant APSA 80 relative to control; type: functional; design: scale not given: the % may be the effect or the level left; conditions: pooled result: one value given for 4 cell lines, strains, targets or settings
Colletotrichum musae [23] = assay: Antifungal activity against Colletotrichum musae infected Cavendish banana fruit assessed as reduction in crown rot incubated for 15 min followed by compound washout measured after 2 weeks in absence of surfactant APSA 80 relative to control; type: functional; design: scale not given: the % may be the effect or the level left
Thielaviopsis paradoxa [24] = assay: Antifungal activity against Ceratocystis paradoxa infected Cavendish banana fruit assessed as reduction in crown rot incubated for 15 min followed by compound washout measured after 1 week in absence of surfactant APSA 80 relative to control; type: functional; design: scale not given: the % may be the effect or the level left
Lasiodiplodia theobromae [25] = assay: Antifungal activity against Lasiodiplodia theobromae infected Cavendish banana fruit assessed as reduction in crown rot incubated for 15 min followed by compound washout measured after 2 weeks in presence of surfactant APSA 80 relative to control; type: functional; design: scale not given: the % may be the effect or the level left
Musa acuminata AAA Group [26] = assay: Phytotoxicity against Musa acuminata AAA Group (Cavendish banana) assessed as discoloration incubated for 15 min followed by compound washout measured after 1 to 3 weeks in presence of surfactant APSA 80 relative to control; type: organism-based; conditions: in vivo
Lasiodiplodia theobromae [27] = assay: Growth inhibition of Lasiodiplodia theobromae assessed as concentration required for inhibition of mycelial growth incubated for 15 min followed by compound washout measured after 7 days in absence of surfactant APSA 80; type: functional
Musa acuminata AAA Group [28] = assay: Phytotoxicity against Musa acuminata AAA Group (Cavendish banana) assessed as skin burn incubated for 15 min followed by compound washout measured after 1 to 3 weeks in presence of surfactant APSA 80 relative to control; type: organism-based; conditions: in vivo
Colletotrichum musae [29] = assay: Antifungal activity against Colletotrichum musae infected Cavendish banana fruit assessed as reduction in crown rot incubated for 15 min followed by compound washout measured after 1 week in presence of surfactant APSA 80 relative to control; type: functional; design: scale not given: the % may be the effect or the level left
Thielaviopsis paradoxa [30] = assay: Antifungal activity against Ceratocystis paradoxa infected Cavendish banana fruit assessed as reduction in crown rot incubated for 15 min followed by compound washout measured after 2 weeks in presence of surfactant APSA 80 relative to control; type: functional; design: scale not given: the % may be the effect or the level left
Colletotrichum musae [31] = assay: Antifungal activity against Colletotrichum musae infected Cavendish banana fruit assessed as reduction in crown rot incubated for 15 min followed by compound washout measured after 1 week in absence of surfactant APSA 80 relative to control; type: functional; design: scale not given: the % may be the effect or the level left
Fusarium verticillioides [32] = assay: Antifungal activity against Fusarium verticillioides assessed as reduction in colony diameter at 10 to 160 g/l incubated for 15 min followed by compound washout measured after 7 days in presence of surfactant APSA 80 relative to control; type: functional; design: scale not given: the % may be the effect or the level left
Thielaviopsis paradoxa [33] = assay: Antifungal activity against Ceratocystis paradoxa infected Cavendish banana fruit assessed as reduction in crown rot incubated for 15 min followed by compound washout measured after 2 weeks in absence of surfactant APSA 80 relative to control; type: functional; design: scale not given: the % may be the effect or the level left
Colletotrichum musae [34] = assay: Growth inhibition of Colletotrichum musae assessed as concentration required for inhibition of mycelial growth incubated for 15 min followed by compound washout measured after 7 days in presence of surfactant APSA 80; type: functional
Lasiodiplodia theobromae [35] = assay: Antifungal activity against Lasiodiplodia theobromae infected Cavendish banana fruit assessed as reduction in crown rot incubated for 15 min followed by compound washout measured after 2 weeks in absence of surfactant APSA 80 relative to control; type: functional; design: scale not given: the % may be the effect or the level left
Thielaviopsis paradoxa [36] = assay: Antifungal activity against Ceratocystis paradoxa infected Cavendish banana fruit assessed as reduction in crown rot incubated for 15 min followed by compound washout measured after 1 week in presence of surfactant APSA 80 relative to control; type: functional; design: scale not given: the % may be the effect or the level left
Fusarium verticillioides [37] = assay: Antifungal activity against Fusarium verticillioides assessed as reduction in colony diameter at 10 to 160 g/l incubated for 15 min followed by compound washout measured after 7 days in absence of surfactant APSA 80 relative to control; type: functional; design: scale not given: the % may be the effect or the level left
Lasiodiplodia theobromae [38] = assay: Antifungal activity against Lasiodiplodia theobromae assessed as reduction in colony diameter at 10 to 160 g/l incubated for 15 min followed by compound washout measured after 7 days in presence of surfactant APSA 80 relative to control; type: functional; design: scale not given: the % may be the effect or the level left
Thielaviopsis paradoxa [39] = assay: Antifungal activity against Ceratocystis paradoxa assessed as reduction in colony diameter at 10 to 160 g/l incubated for 15 min followed by compound washout measured after 7 days in absence of surfactant APSA 80 relative to control; type: functional; design: scale not given: the % may be the effect or the level left
Fusarium verticillioides [40] = assay: Antifungal activity against Fusarium verticillioides infected Cavendish banana fruit assessed as reduction in crown rot incubated for 15 min followed by compound washout measured after 2 weeks in absence of surfactant APSA 80 relative to control; type: functional; design: scale not given: the % may be the effect or the level left
Lasiodiplodia theobromae [41] = assay: Antifungal activity against Lasiodiplodia theobromae assessed as reduction in colony diameter at 10 to 160 g/l incubated for 15 min followed by compound washout measured after 7 days in absence of surfactant APSA 80 relative to control; type: functional; design: scale not given: the % may be the effect or the level left
Lasiodiplodia theobromae [42] = assay: Antifungal activity against Lasiodiplodia theobromae infected Cavendish banana fruit assessed as reduction in crown rot incubated for 15 min followed by compound washout measured after 1 week in absence of surfactant APSA 80 relative to control; type: functional; design: scale not given: the % may be the effect or the level left
Fusarium verticillioides [43] = assay: Antifungal activity against Fusarium verticillioides infected Cavendish banana fruit assessed as reduction in crown rot incubated for 15 min followed by compound washout measured after 2 weeks in presence of surfactant APSA 80 relative to control; type: functional; design: scale not given: the % may be the effect or the level left
Colletotrichum musae [44] = assay: Antifungal activity against Colletotrichum musae assessed as reduction in colony diameter at 10 to 160 g/l incubated for 15 min followed by compound washout measured after 7 days in presence of surfactant APSA 80 relative to control; type: functional; design: scale not given: the % may be the effect or the level left
Fusarium verticillioides [45] = assay: Antifungal activity against Fusarium verticillioides infected Cavendish banana fruit assessed as reduction in crown rot incubated for 15 min followed by compound washout measured after 3 weeks in presence of surfactant APSA 80 relative to control; type: functional; design: scale not given: the % may be the effect or the level left; conditions: pooled result: one value given for 4 cell lines, strains, targets or settings

## O=C([O-])O.[Na+]
Lasiodiplodia theobromae [1]
  inhibition: Active
Lasiodiplodia theobromae [2]
  inhibition: Active
Fusarium verticillioides [3]
  inhibition: Active
Colletotrichum musae [4]
  Activity: inactive
Fusarium verticillioides [5]
  inhibition: Active
Thielaviopsis paradoxa [6]
  inhibition: Active
Thielaviopsis paradoxa [7]
  Activity: inactive
Colletotrichum musae [8]
  Activity: inactive
Fusarium verticillioides [9]
  Activity: inactive
Colletotrichum musae [10]
  inhibition: Active
Thielaviopsis paradoxa [11]
  inhibition: Active
Colletotrichum musae [12]
  inhibition: Active
Fusarium verticillioides [13]
  Activity: inactive
Thielaviopsis paradoxa [14]
  Activity: inactive

## O=C([O-])[O-].[Na+].[Na+] [SODIUM CARBONATE]
Fusarium verticillioides [15]
  Activity: 0%
Lasiodiplodia theobromae [16]
  Activity: 40 g/L
Colletotrichum musae [17]
  Activity: 40%
Fusarium verticillioides [18]
  Activity: 0%
Colletotrichum musae [19]
  Activity: 25%
Thielaviopsis paradoxa [20]
  Activity: 85%
Lasiodiplodia theobromae [21]
  Activity: 0%
Fusarium verticillioides [22]
  Activity: 35%
Colletotrichum musae [23]
  Activity: 0%
Thielaviopsis paradoxa [24]
  Activity: 0%
Lasiodiplodia theobromae [25]
  Activity: 25%
Musa acuminata AAA Group [26]
  Activity: Toxic
Lasiodiplodia theobromae [27]
  Activity: 150 g/L
Musa acuminata AAA Group [28]
  Activity: Toxic
Colletotrichum musae [29]
  Activity: 0%
Thielaviopsis paradoxa [30]
  Activity: 25%
Colletotrichum musae [31]
  Activity: 0%
Fusarium verticillioides [32]
  Activity: 75%
Thielaviopsis paradoxa [33]
  Activity: 0%
Colletotrichum musae [34]
  Activity: 80 g/L
Lasiodiplodia theobromae [35]
  Activity: 0%
Thielaviopsis paradoxa [36]
  Activity: 0%
Fusarium verticillioides [37]
  Activity: 29%
Lasiodiplodia theobromae [38]
  Activity: 91%
Thielaviopsis paradoxa [39]
  Activity: 63%
Fusarium verticillioides [40]
  Activity: 0%
Lasiodiplodia theobromae [41]
  Activity: 54%
Lasiodiplodia theobromae [42]
  Activity: 0%
Fusarium verticillioides [43]
  Activity: 25%
Colletotrichum musae [44]
  Activity: 87%
Fusarium verticillioides [45]
  Activity: 65%
